“And” between values parts separate entries of the source, which are not always exact repeats. Identical values can stand only once. Like-named read-outs stand apart in the source and are kept apart here. No end group written: not given here. *: point of attachment. AMC = Cc1cc(=O)oc2cc(N*)ccc12
Columns and labels:
[1] = target: T1, PsApaH (4) (Pseudomonas sp. M30-35, UniProt A0A1Y0KY79); assay: Acetyl-polyamine deacetylase assay; assay type: biochemical; details: for [acetate] (individual samples): acetate released from acetyl-polyamine substrate, Sample 1-3; for [acetate] mean: mean of samples
Target sequence in this assay (A0A1Y0KY79 1-342 limits assumed): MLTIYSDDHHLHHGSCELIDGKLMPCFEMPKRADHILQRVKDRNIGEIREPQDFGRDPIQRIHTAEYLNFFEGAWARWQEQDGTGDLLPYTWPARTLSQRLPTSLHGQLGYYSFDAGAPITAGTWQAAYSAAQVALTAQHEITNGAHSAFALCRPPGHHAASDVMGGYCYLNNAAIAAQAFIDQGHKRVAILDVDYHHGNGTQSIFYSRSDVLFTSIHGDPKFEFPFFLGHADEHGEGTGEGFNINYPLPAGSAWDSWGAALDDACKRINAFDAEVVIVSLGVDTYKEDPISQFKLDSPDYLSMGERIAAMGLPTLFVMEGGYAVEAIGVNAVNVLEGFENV

[2] = target: PA1409 (Pseudomonas aeruginosa, UniProt Q9I3T5); assay: Acetyl-polyamine deacetylase assay (positive control); assay type: biochemical; details: for [acetate] (individual samples): PA1409, acetate released from acetyl-polyamine substrate, Sample 1-2; for [acetate] mean: mean of samples
[3] = system: VsHdaH (1b); assay type: biochemical, Vibrio sp.; details: VKDAC
[4] = target: KpHdaH (1b) (Klebsiella pneumoniae, UniProt A0A377Z5F6); assay type: biochemical; details: KpHdaH (1b)
[5] = target: T2, BsAcuC (2c) (Bacillus subtilis, UniProt P39067); assay: Substrate screening assay (acyl-peptide-AMC); assay type: biochemical; details: BsAcuC (2c); for [AMC]: Transform RFU in [AMC]
T2 construct: made in house; host or cells: E. coli BL21 (DE3)
T2 sequence (P39067 1-387): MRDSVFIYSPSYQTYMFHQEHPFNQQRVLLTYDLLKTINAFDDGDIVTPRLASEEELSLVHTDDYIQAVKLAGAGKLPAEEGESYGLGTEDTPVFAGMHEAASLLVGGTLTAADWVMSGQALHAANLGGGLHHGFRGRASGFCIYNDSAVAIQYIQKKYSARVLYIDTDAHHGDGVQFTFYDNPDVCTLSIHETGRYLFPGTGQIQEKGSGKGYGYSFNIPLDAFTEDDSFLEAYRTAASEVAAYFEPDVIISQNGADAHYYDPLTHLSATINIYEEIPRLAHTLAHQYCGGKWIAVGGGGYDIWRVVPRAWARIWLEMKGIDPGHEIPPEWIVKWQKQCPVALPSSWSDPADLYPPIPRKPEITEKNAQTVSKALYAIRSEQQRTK
Procedure: (§1) Experiments with SIRT2 and SIRT5 were supplemented with NAD^+ (500 µM). Thereafter, a solution of trypsin (25 µL, 5.0 mg/mL; final concentration of 2.5 mg/mL) was added, and the development of the assay was allowed to proceed for 90 min at room temperature before fluorescence analysis. […] To this end, a single category is given to all conversions >48% on the heatmap. […] For the H4-derived peptide LGKbio no positive control was available.

[6] = system: VcHdaH (5b); assay type: biochemical, Vibrio cholerae; details: VcHdaH (5b); for [AMC]: Transform RFU in [AMC]
[7] = target: T1, PsApaH (4); assay type: biochemical; details: PsApaH (4)
Procedure: as §1

[8] = system: Controls; assay: Substrate screening assay (acyl-peptide-AMC), control enzymes; assay type: biochemical

Chain of PA1409 (Q9I3T5 whole entry): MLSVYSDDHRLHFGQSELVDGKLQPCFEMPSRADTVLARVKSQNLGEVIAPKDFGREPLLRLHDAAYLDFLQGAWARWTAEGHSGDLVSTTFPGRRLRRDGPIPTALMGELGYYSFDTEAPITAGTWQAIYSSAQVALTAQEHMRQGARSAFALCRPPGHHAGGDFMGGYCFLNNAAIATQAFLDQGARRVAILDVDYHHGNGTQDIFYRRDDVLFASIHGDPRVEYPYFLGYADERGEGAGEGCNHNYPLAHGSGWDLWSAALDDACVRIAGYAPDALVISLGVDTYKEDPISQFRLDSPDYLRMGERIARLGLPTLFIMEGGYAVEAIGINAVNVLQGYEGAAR

Compound: CC(=O)NCCCCNCCCN [N8-acetylspermidine]
- [acetate] (individual samples) ([1]; time 10 min): 2.185 mM and 2.098 mM and 1.946 mM
- [acetate] (individual samples) ([1]; time 20 min): 3.446 mM and 3.4674 mM and 3.489 mM
- [acetate] (individual samples) ([1]; time 45 min): 4.967 mM and 5.12 mM (2×)
- [acetate] mean ([1]; time 10 min): 2.076 mM
- [acetate] mean ([1]; time 20 min): 3.4674 mM
- [acetate] mean ([1]; time 45 min): 5.069 mM
- [acetate] (individual samples) ([2]; time 5 min): 5.081 mM and 5.477 mM
- [acetate] (individual samples) ([2]; time 10 min): 19.9519 mM and 19.336 mM
- [acetate] (individual samples) ([2]; time 20 min): 23.7355 mM and 22.9876 mM
- [acetate] (individual samples) ([2]; time 45 min): 24.7914 mM and 25.3193 mM
- [acetate] mean ([2]; PA1409, time 5 min): 5.279 mM
- [acetate] mean ([2]; PA1409, time 10 min): 19.6439 mM
- [acetate] mean ([2]; PA1409, time 20 min): 23.3615 mM
- [acetate] mean ([2]; PA1409, time 45 min): 25.0553 mM

Compound: CC(=O)NCCCCCN [N1-acetylcadaverine]
- [acetate] (individual samples) ([1]; time 5 min): 2.228 mM and 2.337 mM and 2.011 mM
- [acetate] (individual samples) ([1]; time 10 min): 5.272 mM and 5.38 mM and 5.337 mM
- [acetate] (individual samples) ([1]; time 20 min): 7.446 mM and 7.663 mM and 8.054 mM
- [acetate] (individual samples) ([1]; time 45 min): 9.337 mM and 10.2283 mM and 9.967 mM
- [acetate] mean ([1]; time 5 min): 2.192 mM
- [acetate] mean ([1]; time 10 min): 5.33 mM
- [acetate] mean ([1]; time 20 min): 7.721 mM
- [acetate] mean ([1]; time 45 min): 9.844 mM
- [acetate] (individual samples) ([2]; time 5 min): 3.7616 mM and 3.63 mM
- [acetate] (individual samples) ([2]; time 10 min): 14.5405 mM and 14.4965 mM
- [acetate] (individual samples) ([2]; time 20 min): 22.4156 mM and 22.0637 mM
- [acetate] (individual samples) ([2]; time 45 min): 23.2955 mM and 23.4715 mM
- [acetate] mean ([2]; PA1409, time 5 min): 3.696 mM
- [acetate] mean ([2]; PA1409, time 10 min): 14.5185 mM
- [acetate] mean ([2]; PA1409, time 20 min): 22.2396 mM
- [acetate] mean ([2]; PA1409, time 45 min): 23.3835 mM

Compound: QPKKlau (QPKK-{AMC}; not fully specified (residue 4); printed as QPKKlau; also: lauroyl-lysine (which Lys not given here); UniProt P04637 317-320, looked up, fragment)
- Relative Fluorescene Units (RFU) ([3]; Transform RFU*2, Sample 1): -308 RFU
- Relative Fluorescene Units (RFU) ([3]; Transform RFU*2, Sample 2): 12 RFU
- Relative Fluorescene Units (RFU) ([3]; Sample 1): -154 RFU
- Relative Fluorescene Units (RFU) ([3]; Sample 2): 6 RFU
- Relative Fluorescene Units (RFU) ([4]; Sample 1): -177 RFU
- Relative Fluorescene Units (RFU) ([4]; Sample 2): -96 RFU
- Relative Fluorescene Units (RFU) ([4]; Transform RFU*2, Sample 1): -354 RFU
- Relative Fluorescene Units (RFU) ([4]; Transform RFU*2, Sample 2): -192 RFU
- Relative Fluorescene Units (RFU) ([5]; Sample 1): 1004 RFU
- Relative Fluorescene Units (RFU) ([5]; Sample 2): 695 RFU
- [AMC] ([5]; Sample 1): 980.47 nM
- [AMC] ([5]; Sample 2): 678.71 nM
- Relative Fluorescene Units (RFU) ([5]; Transform RFU*2, Sample 1): 2008 RFU
- Relative Fluorescene Units (RFU) ([5]; Transform RFU*2, Sample 2): 1390 RFU
- [AMC] ([6]; Sample 1): -112.30 nM
- [AMC] ([6]; Sample 2): -47.85 nM
- Relative Fluorescene Units (RFU) ([6]; Transform RFU*2, Sample 1): -230 RFU
- Relative Fluorescene Units (RFU) ([6]; Transform RFU*2, Sample 2): -98 RFU
- Relative Fluorescene Units (RFU) ([6]; Sample 1): -115 RFU
- Relative Fluorescene Units (RFU) ([6]; Sample 2): -49 RFU
- Relative Fluorescene Units (RFU) ([7]; Sample 1): 196 RFU
- Relative Fluorescene Units (RFU) ([7]; Sample 2): 66 RFU
- Relative Fluorescene Units (RFU) ([7]; Transform RFU*2, Sample 1): 392 RFU
- Relative Fluorescene Units (RFU) ([7]; Transform RFU*2, Sample 2): 132 RFU
- [AMC] [8]: 10.32715 µM and 12.34863 µM

Compound: CC(=O)NCCCNCCCCNCCCN [N1/N12-acetylspermine]
- [acetate] (individual samples) ([1]; time 5 min): 2.337 mM and 2.446 mM and 2.554 mM
- [acetate] (individual samples) ([1]; time 10 min): 4.0761 mM and 4.1848 mM and 4.12 mM
- [acetate] (individual samples) ([1]; time 20 min): 7.467 mM and 7.707 mM and 7.62 mM
- [acetate] (individual samples) ([1]; time 45 min): 11.6196 mM and 12.1848 mM and 11.8587 mM
- [acetate] mean ([1]; time 5 min): 2.446 mM
- [acetate] mean ([1]; time 10 min): 4.127 mM
- [acetate] mean ([1]; time 20 min): 7.598 mM
- [acetate] mean ([1]; time 45 min): 11.8877 mM
- [acetate] (individual samples) ([2]; time 5 min): 3.921 mM and 3.216 mM
- [acetate] (individual samples) ([2]; time 10 min): 19.1192 mM and 18.2382 mM
- [acetate] (individual samples) ([2]; time 20 min): 34.0974 mM and 33.8331 mM
- [acetate] (individual samples) ([2]; time 45 min): 42.3354 mM and 46.7408 mM
- [acetate] mean ([2]; PA1409, time 5 min): 3.568 mM
- [acetate] mean ([2]; PA1409, time 10 min): 18.6787 mM
- [acetate] mean ([2]; PA1409, time 20 min): 33.9653 mM
- [acetate] mean ([2]; PA1409, time 45 min): 44.5381 mM

— publication PMC11532494 (Nature Communications, 2024)
